Data reported in patent US10301295B2, “Herbicidal compounds” (Syngenta Participations AG, priority 2014, dated 2019).
Like-named read-outs stand apart in the source and are kept apart here.

How the values were obtained:
Type in all cases: in vivo
[1] = tested on: Alopecurus myosuroides (ALOMY); experiment: Glasshouse assay for herbicidal activity, pre-/post-emergence (percentage phytotoxicity); details: Alopecurus myosuroides, Rate 250 g/ha, 100%=total damage, 0%=no damage
How it was run: (§1)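 Visual score (0–100% damage) at 15DAA post-em / 20DAA pre-em. Pots, std soil; treated 1 d (pre) or ~12 d (post) after sowing. 24/18 °C warm spp., 20/16 °C cool spp., 16 h light, 65% RH.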

Avena fatua (AVEFA) = experiment: as above; details: Avena fatua, Rate 250 g/ha, 100%=total damage, 0%=no damage
How it was run: as §1

[2] = tested on: Echinochloa crus-galli (ECHCG); experiment: as above; details: Echinochloa crus-galli, Rate 250 g/ha, 100%=total damage, 0%=no damage
How it was run: as §1

Lolium perenne (LOLPE) = experiment: as above; details: Lolium perenne, Rate 250 g/ha, 100%=total damage, 0%=no damage
How it was run: as §1

wheat = experiment: Post-emergence herbicidal activity against cereal crops (wheat) +/- safener, crop selectivity; details: 100%=total damage to plant, 0%=no damage; for Post-emergence herbicidal activity against wheat (percentage phytotoxicity), +CQC: 250 g/ha, plus safener cloquintocet-mexyl (CQC) applied at 50 g/ha; for percent phytotoxicity (crop damage) to wheat at 250 g/ha: Triticum aestivum, 360 h, without safener, read-out: Post-emergence herbicidal activity against wheat (percentage phytotoxicity), Wheat - CQC
How it was run: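 Test plants raised in pots in a glasshouse (24/18 °C warm or 20/16 °C cool species day/night, 16 h light, 65% humidity) and treated post-emergence about 12 days after sowing. Visual percentage phytotoxicity scored 15 days after application (0% = no damage, 100% = total damage).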

[3] = 360 h, post-emergence, visual assessment 15 DAA, read-out: Post-emergence herbicidal activity (percentage phytotoxicity), ALOMY POST
[4] = 480 h, pre-emergence, visual assessment 20 DAA, read-out: Pre-emergence herbicidal activity (percentage phytotoxicity), ALOMY PRE
[5] = post-emergence, 360 h, post-emergence, visual assessment 15 DAA, read-out: Post-emergence herbicidal activity (percentage phytotoxicity), AVEFA POST
[6] = pre-emergence, 480 h, pre-emergence, visual assessment 20 DAA, read-out: Pre-emergence herbicidal activity (percentage phytotoxicity), AVEFA PRE
[7] = post-emergence, 360 h, post-emergence, visual assessment 15 DAA, read-out: Post-emergence herbicidal activity (percentage phytotoxicity), ECHCG POST
[8] = pre-emergence, 480 h, pre-emergence, visual assessment 20 DAA, read-out: Pre-emergence herbicidal activity (percentage phytotoxicity), ECHCG PRE
[9] = post-emergence, 360 h, post-emergence, visual assessment 15 DAA, read-out: Post-emergence herbicidal activity (percentage phytotoxicity), LOLPE POST
[10] = pre-emergence, 480 h, pre-emergence, visual assessment 20 DAA, read-out: Pre-emergence herbicidal activity (percentage phytotoxicity), LOLPE PRE

Row | SMILES | pest or weed control at 250 g/ha [1, 3] | pest or weed control at 250 g/ha [1, 4] | pest or weed control at 250 g/ha (Avena fatua (AVEFA); [5]) | pest or weed control at 250 g/ha (Avena fatua (AVEFA); [6]) | pest or weed control at 250 g/ha [2, 7] | pest or weed control at 250 g/ha [2, 8] | pest or weed control at 250 g/ha (Lolium perenne (LOLPE); [9]) | pest or weed control at 250 g/ha (Lolium perenne (LOLPE); [10]) | Post-emergence herbicidal activity against wheat (percentage phytotoxicity), +CQC (wheat) | percent phytotoxicity (crop damage) to wheat at 250 g/ha (wheat)
1 | Cc1cc(C)c(C2C(=O)CC(CCNC(=O)NC(=O)c3cc(F)ccc3C(F)(F)F)C2=O)c(C)c1 (stereo not shown) [Compound A63] | 100% | 90% | 90% | 40% | 80% | 70% | 90% | 80% | 80% | 80%
2 | Cc1cc(C)c(C2C(=O)CC(CCNC(=O)NC(=O)c3ccccc3C)C2=O)c(C)c1 (stereo not shown) [Compound A50] | 100% | 100% | 90% | 80% | 80% | 90% | 100% | 90% | 90% | 90%
3 | Cc1cc(-n2cc(Cl)cn2)cc(C)c1C1C(=O)CC(CCNC(=O)Nc2ccccn2)C1=O.Cl (stereo not shown) [Compound A13] | 90% | 70% | 100% | 40% | 100% | 90% | 70% | 50% | 40% | 70%
4 | Cc1cc(-n2cc(Cl)cn2)cc(C)c1C1C(=O)CC(CCNC(=O)C2=NOC(C)(C)C2)C1=O (stereo not shown) [Compound A43] | 90% | 90% | 100% | 90% | 100% | 90% | 100% | 90% | 50% | 90%
